The record followed here is patent US20240131168A1, “NAPHTHALENE RING-CONTAINING COMPOUND, PHARMACEUTICAL COMPOSITION CONTAINING SAME, AND USE THEREOF” (JIANGSU YAHONG MEDITECH CO., LTD., priority 2021, published 2024).

Format in all cases: cell-based
For one test, the system named is TamR-MCF-7. Briefly: CellTiter-Glo cell proliferation inhibition, TamR-MCF-7. To be noted: 144 h; TamR-MCF-7 (CTG), 6 days, starting concentration 10 μM; read-out: IH % max (maximum inhibition percentage). The source says: (§1) 1. Cell line • (1) Breast cancer cell lines and their culture media: • MCF-7 (ATCC; Cat. No.: HTB-22), a Luminal A breast cancer cell; • TamR-MCF-7 (ATCC; Cat. No.: CRL-3435), a breast cancer cell; • MCF-7 ER^D538G: a Luminal A breast cancer cell obtained by constructing MCF-7 (ATCC; Cat. No.: HTB-22) using CRISPR-Cas9 gene editing technology; • MCF-7 ER^Y537S: a Luminal A breast cancer cell obtained by constructing MCF-7 (ATCC; Cat. No.: HTB-22) using CRISPR-Cas9 gene editing technology; • MDA-MB-231: (manufacturer: Nanjing CoBioer Biosciences Co., Ltd.), a triple-negative breast cancer cell; • MDA-MB-468: (manufacturer: Nanjing CoBioer Biosciences Co., Ltd.), a triple-negative breast cancer cell.
(§2) Herein, the culture medium of MCF-7, TamR-MCF-7, MCF-7 ER^D538G, and MCF-7 ER^Y537S was EMEM; • the culture medium of MDA-MB-231 and MDA-MB-468 was DMEM.
(§3) 2. Reagents • Culture medium EMEM (Gibco, 1964507) • Culture medium DMEM (Gibco, 12430-054) • Fetal bovine serum (Gibco, 10091148) • Penicillin-streptomycin double antibody (Gibco, S110JV) • DPBS (Gibco, 14190-144) • CellTiter-Glo® assay kit (Promega, G7573) • Trypsin (0.25%) (Gibco, 25200-056) • DMSO (Sigma, D2650)
(§4) 3. Instruments • Biosafety cabinet (AIRTECH, BSC-1300A II) • Automated cell counter (Life Technologies, countess II) • Multifunctional microplate reader (Biotek, H1FM) • Orbital shaker (Hangzhou Allsheng Instruments Co., Ltd., OS-100) • XLFIT 5.3 (Inforstack Shanghai Co., Ltd.)
(§5) For this test method, the following experiments were performed in a biosafety cabinet, with the specific steps as follows: • (1) Cells were inoculated in a 96-well plate. One day later, the previous culture medium was poured off, 5 mL of DPBS was added to wash the cells, and then DPBS was pipetted and discarded. An appropriate amount of trypsin was then added. The plate was digested in a 37° C., 5% CO2 cell incubator for about 2 to 5 minutes and then taken out. Anew corresponding culture medium was added, and pipetted up and down to resuspend the cells evenly. The cells were then counted using an automated cell counter. • (2) Each cell was inoculated in columns 1 to 11 of a 96-well plate (Corning, Cat. No.: 3610) at a density of 1,000 or 2,000 cells per well in 100 μL of culture medium, and 100 μL of the corresponding culture medium without cells was added to the wells in column 12. The plate was then placed in a 37° C., 5% CO2 incubator for 24 hours. • (3) The compound of the present disclosure and the control drug fulvestrant (Selleck; Cat. No.: S1191) were then 4-fold serially diluted to 10 dose points starting at 10 μM. 10 μL of the serially diluted compound was pipetted and added to 100 μL of cells in columns 1 to 10, and 10 μL of the corresponding culture medium containing 0.33 v % DMSO was added to both columns 11 and 12. The plate was incubated in a 37° C., 5% CO2 incubator for 6 days or 72 hours (Note: column 11 was used as a MAX well with cells but without compound; column 12 was used as a MIN well without cells […]). • (4) The cell viability detection reagent in the CellTiter-Glo® assay kit was then added to the 96-well plate at 50 μL per well according to the instructions, and shaken on an orbital shaker in the dark for 5 to 10 minutes. The cell viability was then measured using a multifunctional microplate reader. Finally, the inhibition of cell proliferation by the compound of the present disclosure was plotted by XLFIT software, and the IC50 value (half inhibitory concentration) and the IH % max (maximum inhibition percentage) of the compound of the present disclosure were calculated.
(Cellular ATP, detected with luciferase, serves as a proxy for viable cell number.)

Another test relates to MCF-7 ER^D538G. Briefly: CellTiter-Glo cell proliferation inhibition, MCF-7 ER^D538G. To be noted: Homo sapiens, MCF7, 144 h, MCF-7 ER^D538G (CTG), 6 days, starting concentration 10 μM; for inhibition at up to 10 µM: read-out: IH % max (maximum inhibition percentage).
Excerpt: as §1, §2, §3, §4, §5

Another test relates to MDA-MB-468. In words: CellTiter-Glo cell proliferation inhibition, MDA-MB-468. The note with it: Homo sapiens, MDA-MB-468 (CTG), starting concentration 10 μM; for inhibition at up to 10 µM: read-out: IH % max (maximum inhibition percentage).
Excerpt: as §1, §2, §3, §4, §5
(§6) Compounds D64 to D69 were tested for MDA-MB-231 (CTG) and MDA-MB-468 (CTG) with an incubation time of 72 hours in the incubator.

The next test has as its system MCF-7 ER^Y537S. In words: CellTiter-Glo cell proliferation inhibition, MCF-7 ER^Y537S. To be noted: Homo sapiens, MCF7, 144 h; MCF-7 ER^Y537S (CTG), 6 days, starting concentration 10 μM; read-out: IH % max (maximum inhibition percentage).
Excerpt: as §1, §2, §3, §4, §5

The next test deals with MDA-MB-231. In words: CellTiter-Glo cell proliferation inhibition, MDA-MB-231. To be noted: Homo sapiens, MDA-MB-231 (CTG), starting concentration 10 μM; for inhibition at up to 10 µM: read-out: IH % max (maximum inhibition percentage).
Excerpt: as §1, §2, §3, §4, §5, §6

The subject of the next test is MCF-7. In words: CellTiter-Glo cell proliferation inhibition, MCF-7 (Effect Example 2). The note with it: Homo sapiens, MCF7, 144 h; MCF-7 (CTG), 6 days, starting concentration 10 μM; read-out: IH % max (maximum inhibition percentage).
Excerpt: as §1, §2, §3, §4, §5

Setting [1] is: incubation time 72 hours (D64 to D69).

Read-outs that look alike come from different tables or passages of the source.

Take `CCN(CCCc1ccc2c(c1)CN(C1CCC(=O)NC1=O)C2=O)CCOc1ccc(Oc2c(-c3ccc(S(C)(=O)=O)cc3)ccc3cc(O)ccc23)cc1` (stereo not shown) [Compound D4, 3-(5-(3-(ethyl(2-(4-((6-hydroxy-2-(4-(methylsulfonyl)phenyl)naphthalen-1-yl)oxy)phenoxy)ethyl)amino)propyl)-1-oxoisoindolin-2-yl)piperidine-2,6-dione]: the inhibition at up to 10 µM is 32% in the test on TamR-MCF-7; 80% in the test with MCF-7 ER^D538G; 53% with MDA-MB-468 (144 h, 6 days); 63% with MCF-7 ER^Y537S. Also, the 50% inhibitory concentration (IC50) with MCF-7 ER^D538G was 502 nM.
Take `CNC(=O)c1ccc(-c2ccc3cc(O)ccc3c2Oc2ccc(OCCN3CCN(c4ccc5c(c4)CN(C4CCC(=O)NC4=O)C5=O)CC3)cc2)cc1` (stereo not shown) [Compound D64, 4-(1-(4-(2-(4-(2-(2,6-dioxopiperidin-3-yl)-1-oxoisoindolin-5-yl)piperazin-1-yl)ethoxy)phenoxy)-6-hydroxynaphthalen-2-yl)-N-methylbenzamide]: in the test with MDA-MB-231 (setting [1]), inhibition was half-maximal at 9.8 nM (IC50) and the inhibition at up to 10 µM worked out at 79.8%. Also, in the test on MDA-MB-468 (setting [1]), the IC50 came to 19.3 nM and the inhibition at up to 10 µM stood at 87%.
`CN(C)C(=O)c1ccc(-c2ccc3ccccc3c2Oc2ccc(OC(=O)N3CCN(c4ccc5c(c4)CN(C4CCC(=O)NC4=O)C5=O)CC3)cc2)cc1` (stereo not shown) [Compound D67, 4-((2-(4-(dimethylcarbamoyl)phenyl)naphthalen-1-yl)oxy)phenyl 4-(2-(2,6-dioxopiperidin-3-yl)-1-oxoisoindolin-5-yl)piperazine-1-carboxylate]: in the test on MDA-MB-231 (setting [1]), the midpoint of inhibition, the IC50, lay at 3.7 nM and the inhibition at up to 10 µM is 79.2%. Besides, in the test with MDA-MB-468 (setting [1]), the IC50 turned out to be 4.4 nM and the inhibition at up to 10 µM stood at 83.6%.
On to `CCN(CCOCCOCCNc1cccc2c1CN(C1CCC(=O)NC1=O)C2=O)CCOc1ccc(Oc2c(-c3ccc(S(C)(=O)=O)cc3)ccc3cc(O)ccc23)cc1` (stereo not shown) [Compound D26, 3-(4-((2-(2-(2-(ethyl(2-(4-((6-hydroxy-2-(4-(methylsulfonyl)phenyl)naphthalen-1-yl)oxy)phenoxy)ethyl)amino)ethoxy)ethoxy)ethyl)amino)-1-oxoisoindolin-2-yl)piperidine-2,6-dione], for which the inhibition at up to 10 µM is 35% in the test on TamR-MCF-7; 75% in the test with MCF-7 ER^D538G; 55% in the test on MCF-7; 37% in the test with MDA-MB-468 (144 h, 6 days); 43% in the test with MCF-7 ER^Y537S.
`CCN(CCOc1ccc(Oc2c(-c3ccc(S(C)(=O)=O)cc3)ccc3cc(O)ccc23)cc1)CC(=O)N1CCN(c2ccc3c(c2)CN(C2CCC(=O)NC2=O)C3=O)CC1` (stereo not shown) [Compound D7, 3-(5-(4-(N-ethyl-N-(2-(4-((6-hydroxy-2-(4-(methylsulfonyl)phenyl)naphthalen-1-yl)oxy)phenoxy)ethyl)glycyl)piperazin-1-yl)-1-oxoisoindolin-2-yl)piperidine-2,6-dione]: the inhibition at up to 10 µM in the test with TamR-MCF-7 is 47%; in the test with MCF-7 ER^D538G, 40%; in the test with MCF-7, 49%; in the test with MDA-MB-468 (144 h, 6 days), 63%; with MCF-7 ER^Y537S, 60%.
With `CCN(CCOCCOCCOCCNc1cccc2c1C(=O)N(C1CCC(=O)NC1=O)C2=O)CCOc1ccc(Oc2c(-c3ccc(S(C)(=O)=O)cc3)ccc3cc(O)ccc23)cc1` (stereo not shown) [Compound D39, 2-(2,6-dioxopiperidin-3-yl)-4-((3-ethyl-1-(4-((6-hydroxy-2-(4-(methylsulfonyl)phenyl)naphthalen-1-yl)oxy)phenoxy)-6,9,12-trioxa-3-azatetradecan-14-yl)amino)isoindoline-1,3-dione], the inhibition at up to 10 µM with TamR-MCF-7 is 32%; in the test on MCF-7 ER^D538G, 73%; in the test with MCF-7 it was 35%; in the test with MDA-MB-468 (144 h, 6 days), 51%; with MCF-7 ER^Y537S, 48%. For the same compound, the IC50 with MCF-7 ER^D538G came out at 158 nM.
With `CN(C)C(=O)c1ccc(-c2ccc3ccccc3c2Oc2ccc(OCCN3CCN(c4ccc5c(c4)CN(C4CCC(=O)NC4=O)C5=O)CC3)cc2)cc1` (stereo not shown) [Compound D68, 4-(1-(4-(2-(4-(2-(2,6-dioxopiperidin-3-yl)-1-oxoisoindolin-5-yl)piperazin-1-yl)ethoxy)phenoxy)naphthalen-2-yl)-N,N-dimethylbenzamide], in the test with MDA-MB-231 (setting [1]), inhibition was half-maximal at 44.2 nM (IC50) and the inhibition at up to 10 µM is 71.5%. Moreover, in the test with MDA-MB-468 (setting [1]), half-maximal inhibition (IC50) was put at 35.4 nM and the inhibition at up to 10 µM was 59.3%.
Turning to `CCN(CCOCCOCCN1CCN(c2cccc3c2CN(C2CCC(=O)NC2=O)C3=O)CC1)CCOc1ccc(Oc2c(-c3ccc(S(C)(=O)=O)cc3)ccc3cc(O)ccc23)cc1` (stereo not shown) [Compound D40], the inhibition at up to 10 µM with TamR-MCF-7 was 31%; in the test with MCF-7 ER^D538G, 72%; in the test with MCF-7 it was 34%; in the test with MDA-MB-468 (144 h, 6 days), 71%; with MCF-7 ER^Y537S, 61%.
`CS(=O)(=O)c1ccc(-c2ccc3cc(O)ccc3c2Oc2ccc(N3CCN(CC(=O)N4CCN(c5ccc6c(c5)CN(C5CCC(=O)NC5=O)C6=O)CC4)CC3)cc2)cc1` (stereo not shown) [Compound D12, 3-(5-(4-(2-(4-(4-((6-hydroxy-2-(4-(methylsulfonyl)phenyl)naphthalen-1-yl)oxy)phenyl)piperazin-1-yl)acetyl)piperazin-1-yl)-1-oxoisoindolin-2-yl)piperidine-2,6-dione] had an IC50 with MCF-7 ER^D538G of 761 nM. In addition, the inhibition at up to 10 µM was 68% with MCF-7 ER^D538G; 37% in the test with MDA-MB-231 (144 h, 6 days); 45% in the test on MCF-7.
`CCN(CCCCCOCC(=O)Nc1cccc2c1CN(C1CCC(=O)NC1=O)C2=O)CCOc1ccc(Oc2c(-c3ccc(S(C)(=O)=O)cc3)ccc3cc(O)ccc23)cc1` (stereo not shown) [Compound D1, N-(2-(2,6-dioxopiperidin-3-yl)-1-oxoisoindolin-4-yl)-2-((5-(ethyl(2-(4-((6-hydroxy-2-(4-(methylsulfonyl)phenyl)naphthalen-1-yl)oxy)phenoxy)ethyl)amino)pentyl)oxy)acetamide]: the inhibition at up to 10 µM came to 33% with TamR-MCF-7, 79% with MCF-7 ER^D538G, 30% in the test on MCF-7 and 73% in the test on MCF-7 ER^Y537S.

As usually defined, the inhibition is the change of the read-out against control, counted positive when it falls. As usually defined, the IC50 is the concentration at which inhibition is half-maximal. Read a low IC50 as higher potency.
